From article PMC10053807, “Natural Lipid Extracts as an Artificial Membrane for Drug Permeability Assay: In Vitro and In Silico Characterization” (Pharmaceutics, 2023)

Tests used:
[1] = PAMPA permeability, heart polar lipid extract (HPLE) membrane; settings: for Mean logPe / Mean Pe: Heart Polar lipid extract membrane, n=3; for Papp at 4 h, 100 μM: bovine, PAMPA, pH 7.4; for Mean Pe: * = not detected at acceptor side, value calculated from limit of detection
[2] = PAMPA permeability, liver polar lipid extract (LPLE) membrane; settings: for Papp at 4 h, 100 μM: bovine, PAMPA, pH 7.4, Mean Pe; for Mean logPe: n=3
[3] = PAMPA permeability, brain polar lipid extract (BPLE) membrane; settings: for Mean logPe / Mean Pe: Brain Polar lipid extract membrane, n=3; for Mean Pe: * = not detected at acceptor side, value calculated from limit of detection; for Papp at 4 h, 100 μM: pig, PAMPA, pH 7.4
[4] = PAMPA permeability, brain total lipid extract (BTLE) membrane; settings: for Mean logPe / Mean Pe: Brain total lipid extract membrane, n=3; for Papp at 4 h, 100 μM: pig, PAMPA, pH 7.4; for Mean Pe: * = not detected at acceptor side, value calculated from limit of detection
[5] = PAMPA permeability, liver total lipid extract (LTLE) membrane; settings: for Mean logPe / Mean Pe: Liver total lipid extract membrane, n=3; for Papp at 4 h, 100 μM: bovine, PAMPA, pH 7.4; for Mean Pe: * = not detected at acceptor side, value calculated from limit of detection
[6] = PAMPA permeability, heart total lipid extract (HTLE) membrane; settings: for Papp at 4 h, 100 μM: bovine, PAMPA; for PAMPA permeability on HTLE: pH 7.4, 4 h, 37 °C, in words (PCA biplot, Figure 11B)
[7] = PAMPA permeability, comparison across the six natural lipid extract membranes; settings: for total-polar permeability comparison: heart, liver and brain extracts, Figure 10A–C
[8] = n=3, * = not detected at acceptor side, value calculated from limit of detection
[9] = Heart total lipid extract membrane, n=3
[10] = pH 7.4, Mean Pe, Heart total lipid extract membrane, n=3, * = not detected at acceptor side, value calculated from limit of detection
[11] = pH 7.4, Mean logPe, Heart total lipid extract membrane, n=3

SMILES	Mean logPe [1]	Papp at 4 h, 100 μM [1]	Papp at 4 h, 100 μM [2, 8]	Mean logPe [2]	Mean logPe [3]	Mean logPe [4]	Papp at 4 h, 100 μM [4]	Mean logPe [5]	Papp at 4 h, 100 μM [5]	Mean logPe [6, 9]	Papp at 4 h, 100 μM [6, 10]	PAMPA permeability on HTLE [6]	Papp at 4 h, 100 μM [3]	further results
CC1=NNS(=O)(=O)c2c1ccc(Cl)c2Cl [PGY0072]	-5.35	4.67 ×10⁻⁶ cm/s	12.2 ×10⁻⁶ cm/s	-4.91	-5.38	-5.50	3.23 ×10⁻⁶ cm/s	-4.66	22.2 ×10⁻⁶ cm/s	-5.40	4.26 ×10⁻⁶ cm/s	low	–	Mean Pe [3]: 4.23 10-6 cm/s
Nc1c(Br)cc(Br)cc1CN[C@H]1CC[C@H](O)CC1 [ambroxol]	-4.21	61.8 ×10⁻⁶ cm/s	54.5 ×10⁻⁶ cm/s	-4.26	–	–	–	-4.27	54 ×10⁻⁶ cm/s	-4.40	–	–	–	–
O=C1CC2(CCCC2)CC(=O)N1CCCCN1CCN(c2ncccn2)CC1 [buspirone]	–	–	57 ×10⁻⁶ cm/s	–	–	–	–	–	–	–	–	–	–	total-polar permeability comparison [7]: higher permeability in polar lipids
Cn1c(=O)c2c(ncn2C)n(C)c1=O [caffeine]	-5.39	4.19 ×10⁻⁶ cm/s	11.3 ×10⁻⁶ cm/s	-4.95	-5.53	-5.71	1.96 ×10⁻⁶ cm/s	-4.7	20.3 ×10⁻⁶ cm/s	-5.59	2.62 ×10⁻⁶ cm/s	low	2.97 ×10⁻⁶ cm/s	–
CO/N=C(\C(=O)N[C@@H]1C(=O)N2C(C(=O)O)=C(COC(N)=O)CS[C@H]12)c1ccco1 [cefuroxime]	< -5.89	–	7.1 ×10⁻⁶ cm/s	-5.17	-5.94	-5.89	1.28 ×10⁻⁶ cm/s	< -5.94	–	-5.91	1.25 ×10⁻⁶ cm/s	–	1.14 ×10⁻⁶ cm/s	Mean Pe [1]: < 1,28* 10-6 cm/s; Mean Pe [5]: < 1,14* 10-6 cm/s
CCCCOc1cc(C(=O)NCCN(CC)CC)c2ccccc2n1 [dibucaine]	-4.31	48.6 ×10⁻⁶ cm/s	39.9 ×10⁻⁶ cm/s	-4.40	-4.19	-4.40	–	-4.56	28.6 ×10⁻⁶ cm/s	-4.44	37.3 ×10⁻⁶ cm/s	high permeability	65 ×10⁻⁶ cm/s	total-polar permeability comparison [7]: higher permeability in polar lipids; Mean Pe [4]: 40.24 10-6 cm/s
CCn1cc(C(=O)O)c(=O)c2cc(F)c(N3CCNCC3)nc21 [enoxacin]	-5.44	3.7 ×10⁻⁶ cm/s	3.49 ×10⁻⁶ cm/s	-5.46	-5.12	-5.36	4.48 ×10⁻⁶ cm/s	-5.37	4.25 ×10⁻⁶ cm/s	–	0.4 ×10⁻⁶ cm/s	–	7.58 ×10⁻⁶ cm/s	Papp at 4 h, 100 μM [6, 11]: 0.589 ×10⁻⁶ cm/s
NC(N)=Nc1nc(CSCCC(N)=NS(N)(=O)=O)cs1 [famotidine]	–	< 0.339 ×10⁻⁶ cm/s	–	< -6.49	< -6.48	< -6.47	–	–	< 0.331 ×10⁻⁶ cm/s	–	–	–	–	Mean Pe [1]: < 0,34* 10-6 cm/s; Mean Pe [2, 8]: < 0,33* 10-6 cm/s; Mean Pe [3]: < 0,33* 10-6 cm/s; Mean Pe [4]: < 0,34* 10-6 cm/s; Mean Pe [5]: < 0,33* 10-6 cm/s; Mean Pe ([6]; Heart total lipid extract membrane, n=3, * = not detected at acceptor side, value calculated from limit of detection): < 0,33* 10-6 cm/s; Papp at 4 h, 100 μM [6, 11]: < 0.324 ×10⁻⁶ cm/s
CC(C)C(=O)Nc1ccc([N+](=O)[O-])c(C(F)(F)F)c1 [flutamide]	-4.30	50.3 ×10⁻⁶ cm/s	29.4 ×10⁻⁶ cm/s	-4.54	-4.24	-4.45	35.5 ×10⁻⁶ cm/s	-4.32	47.9 ×10⁻⁶ cm/s	-4.40	41.8 ×10⁻⁶ cm/s	high permeability	58.1 ×10⁻⁶ cm/s	total-polar permeability comparison, brain extracts ([7]; BTLE vs BPLE): higher in the brain polar extract; total-polar permeability comparison, liver extracts ([7]; LTLE vs LPLE): higher in the liver total extract
